This is an account of results in patent publication US10189839B2, “Tricyclic imidazole compounds as inhibitors of tryptophan hydroxylase” (ACTELION PHARMACEUTICALS LTD, priority 2013, dated 2019).

The experiment addresses T1, full length human TPH1 (Homo sapiens, UniProt P17752).
T1 construct: To generate the enzyme, full length human TPH1 is cloned into the plasmid pET20b(+); made in house; host or cells: E. coli
T1 sequence (P17752 1-444): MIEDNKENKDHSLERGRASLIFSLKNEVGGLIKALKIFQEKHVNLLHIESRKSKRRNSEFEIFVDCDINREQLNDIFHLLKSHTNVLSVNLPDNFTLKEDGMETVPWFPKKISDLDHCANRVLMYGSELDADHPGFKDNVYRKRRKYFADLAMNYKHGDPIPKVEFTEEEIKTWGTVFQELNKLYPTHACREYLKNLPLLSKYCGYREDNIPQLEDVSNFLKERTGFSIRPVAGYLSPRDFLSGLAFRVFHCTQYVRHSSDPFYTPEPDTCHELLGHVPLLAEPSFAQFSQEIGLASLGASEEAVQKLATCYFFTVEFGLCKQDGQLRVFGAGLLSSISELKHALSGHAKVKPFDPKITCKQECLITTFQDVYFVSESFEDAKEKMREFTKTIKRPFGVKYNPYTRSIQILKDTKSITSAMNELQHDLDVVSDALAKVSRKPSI
The experiment can be described thus: Biochemical in vitro assay using fluorescence readout (TPH1 enzyme activity). As to conditions: Table 1, mean where determined several times. The procedure, abridged:
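E. coli-expressed full-length human TPH1 (40-80 nM), affinity- and size-exclusion-purified, incubated 60 min at 15° C. in 0.1M Tris-HCl pH 7.6 with 1 mM DTT, 0.2 mg/ml catalase, 100 μM 6-methyltetrahydropterine and 40 μM L-tryptophan. 5-Hydroxy-L-tryptophan read by fluorescence (ex 300/em 540 nm) after HClO4 quench; IC50 versus vehicle, mean where repeated.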
On to `CCc1nc(N2CCCS2(=O)=O)ccc1OCC(=O)N1CCc2nc3n(c2[C@@H]1c1sc(C)nc1C)CCC3` [Example 2.4.4, (R)-1-(1-(2,4-dimethylthiazol-5-yl)-3,4,7,8-tetrahydro-1H-pyrrolo[2′,1′:2,3]imidazo[4,5-c]pyridin-2(6H)-yl)-2-((6-(1,1-dioxidoisothiazolidin-2-yl)-2-ethylpyridin-3-yl)oxy)ethanone], for which the IC50 came out at 7 nM.
Compound `CS(=O)(=O)Nc1ccc(OCC(=O)N2CCc3nc4n(c3C2c2ccc(Cl)cc2F)CCCCC4)c(Cl)n1` (stereo not shown) [Example 3.1.1, N-(6-chloro-5-(2-(1-(4-chloro-2-fluorophenyl)-3,4,7,8,9,10-hexahydro-1H-pyrido[4′,3′:4,5]imidazo[1,2-a]azepin-2(6H)-yl)-2-oxoethoxy)pyridin-2-yl)methanesulfonamide] showed an IC50 of 26 nM.
In the case of `Cc1ccc(C2c3c(nc4n3CCCCC4)CCN2C(=O)COc2ccc(NS(C)(=O)=O)nc2Cl)c(F)c1` (stereo not shown) [Example 3.2.1, N-(6-chloro-5-(2-(1-(2-fluoro-4-methylphenyl)-3,4,7,8,9,10-hexahydro-1 H-pyrido[4′,3′:4,5]imidazo-[1,2-a]azepin-2(6H)-yl)-2-oxoethoxy)pyridin-2-yl)methanesulfonamide], the IC50 came to 21 nM.
The compound `CS(=O)(=O)Nc1ccc(OCC(=O)N2CCc3nc4n(c3C2c2ccc(Cl)cc2F)CCS4)c(Cl)n1` (stereo not shown) [Example 4.1.1, N-(6-chloro-5-(2-(5-(4-chloro-2-fluorophenyl)-2,3,7,8-tetrahydrothiazolo[2′,3′:2,3]imidazo[4,5-c]pyridin-6(5H)-yl)-2-oxoethoxy)pyridin-2-yl)methanesulfonamide] returned a half-inhibitory concentration (IC50) of 19 nM.
To `O=C(COc1ccc(N2CCCS2(=O)=O)nc1Cl)N1CCc2nc3n(c2C1c1ccc(Cl)cc1F)CCS3` (stereo not shown) [Example 4.1.2, 1-(5-(4-chloro-2-fluorophenyl)-2,3,7,8-tetrahydrothiazolo[2′,3′:2,3]imidazo[4,5-c]pyridin-6(5H)-yl)-2-((2-chloro-6-(1,1-dioxidoisothiazolidin-2-yl)pyridin-3-yl)oxy)ethanone] belongs 7 nM; to `CCc1nc(NS(C)(=O)=O)ccc1OCC(=O)N1CCc2nc3n(c2C1c1ccc(Cl)cc1F)CCS3` (stereo not shown) [Example 4.1.3, N-(5-(2-(5-(4-chloro-2-fluorophenyl)-2,3,7,8-tetrahydrothiazolo[2′,3′:2,3]imidazo[4,5-c]pyridin-6(5H)-yl)-2-oxoethoxy)-6-ethylpyridin-2-yl)methanesulfonamide], 16 nM.
`CN(c1ccc(OCC(=O)N2CCc3nc4n(c3C2c2ccc(Cl)cc2F)CCS4)c(Cl)n1)S(C)(=O)=O` (stereo not shown) [Example 4.1.4, N-(6-chloro-5-(2-(5-(4-chloro-2-fluorophenyl)-2,3,7,8-tetrahydrothiazolo[2′,3′:2,3]imidazo[4,5-c]pyridin-6(5H)-yl)-2-oxoethoxy)pyridin-2-yl)-N-methylmethanesulfonamide] came in with an IC50 of 16 nM.
The figure for `CN1CCN(c2ccc(OCC(=O)N3CCc4nc5n(c4C3c3ccc(Cl)cc3F)CCS5)c(Cl)n2)S1(=O)=O` (stereo not shown) [Example 4.1.5, 1-(5-(4-chloro-2-fluorophenyl)-2,3,7,8-tetrahydrothiazolo[2′,3′:2,3]imidazo[4,5-c]pyridin-6(5H)-yl)-2-((2-chloro-6-(5-methyl-1,1-dioxido-1,2,5-thiadiazolidin-2-yl)pyridin-3-yl)oxy)ethanone] is 12 nM; for `CCc1nc(N2CCCS2(=O)=O)ccc1OCC(=O)N1CCc2nc3n(c2C1c1ccc(Cl)cc1F)CCS3` (stereo not shown) [Example 4.1.6, 1-(5-(4-chloro-2-fluorophenyl)-2,3,7,8-tetrahydrothiazolo[2′,3′:2,3]imidazo[4,5-c]pyridin-6(5H)-yl)-2-((6-(1,1-dioxidoisothiazolidin-2-yl)-2-ethylpyridin-3-yl)oxy)ethanone] it is 12 nM.
Compound `CCc1nc(NS(=O)(=O)N(C)C)ccc1OCC(=O)N1CCc2nc3n(c2C1c1ccc(Cl)cc1F)CCS3` (stereo not shown) [Example 4.1.7, N-(5-(2-(5-(4-chloro-2-fluorophenyl)-2,3,7,8-tetrahydrothiazolo[2′,3′:2,3]imidazo[4,5-c]pyridin-6(5H)-yl)-2-oxoethoxy)-6-ethylpyridin-2-yl)-N′,N′-dimethyl-sulfamide] returned an IC50 of 76 nM.
The figure for `CCc1nc(C)ccc1OCC(=O)N1CCc2nc3n(c2C1c1ccc(Cl)cc1F)CCS3` (stereo not shown) [Example 4.1.8, 1-(5-(4-chloro-2-fluorophenyl)-2,3,7,8-tetrahydrothiazolo[2′,3′:2,3]imidazo[4,5-c]pyridin-6(5H)-yl)-2-((2-ethyl-6-methylpyridin-3-yl)oxy)ethanone] is 28 nM; for `CCc1nc(C(=O)NC2CC2)ccc1OCC(=O)N1CCc2nc3n(c2C1c1ccc(Cl)cc1F)CCS3` (stereo not shown) [Example 4.1.9, 5-(2-(5-(4-chloro-2-fluorophenyl)-2,3,7,8-tetrahydrothiazolo[2′,3′:2,3]imidazo[4,5-c]pyridin-6(5H)-yl)-2-oxoethoxy)-N-cyclopropyl-6-ethylpicolinamide] it is 31 nM; for `CCc1nc(NS(C)(=O)=O)ncc1OCC(=O)N1CCc2nc3n(c2C1c1ccc(Cl)cc1F)CCS3` (stereo not shown) [Example 4.1.10, N-(5-(2-(5-(4-chloro-2-fluorophenyl)-2,3,7,8-tetrahydrothiazolo[2′,3′:2,3]imidazo[4,5-c]pyridin-6(5H)-yl)-2-oxoethoxy)-4-ethylpyrimidin-2-yl)methanesulfonamide] it is 67 nM.
Regarding `CCc1nc(Cl)ncc1OCC(=O)N1CCc2nc3n(c2C1c1ccc(Cl)cc1F)CCS3` (stereo not shown) [Example 4.1.11, 1-(5-(4-chloro-2-fluorophenyl)-2,3,7,8-tetrahydrothiazolo[2′,3′:2,3]imidazo[4,5-c]pyridin-6(5H)-yl)-2-((2-chloro-4-ethylpyrimidin-5-yl)oxy)ethanone], 185 nM corresponded to half-maximal inhibition (IC50).
`O=C(NC1CC1)c1ccc(OCC(=O)N2CCc3nc4n(c3C2c2ccc(Cl)cc2F)CCS4)c(Cl)n1` (stereo not shown) [Example 4.1.12, 6-chloro-5-(2-(5-(4-chloro-2-fluorophenyl)-2,3,7,8-tetrahydrothiazolo[2′,3′:2,3]imidazo[4,5-c]pyridin-6(5H)-yl)-2-oxoethoxy)-N-cyclopropylpicolinamide]: the IC50 worked out at 9 nM.
The figure for `O=C(COc1ccc(C2CC2)nc1Cl)N1CCc2nc3n(c2C1c1ccc(Cl)cc1F)CCS3` (stereo not shown) [Example 4.1.13, 1-(5-(4-chloro-2-fluorophenyl)-2,3,7,8-tetrahydrothiazolo[2′,3′:2,3]imidazo[4,5-c]pyridin-6(5H)-yl)-2-((2-chloro-6-cyclopropylpyridin-3-yl)oxy)ethanone] is 11 nM.
`CCc1nc(C2CC2)ccc1OCC(=O)N1CCc2nc3n(c2C1c1ccc(Cl)cc1F)CCS3` (stereo not shown) [Example 4.1.14, 1-(5-(4-chloro-2-fluorophenyl)-2,3,7,8-tetrahydrothiazolo[2′,3′:2,3]imidazo[4,5-c]pyridin-6(5H)-yl)-2-((6-cyclopropyl-2-ethylpyridin-3-yl)oxy)ethanone]: half-maximal inhibition (IC50) required 16 nM.
`CCc1nc(NS(C)(=O)=O)ccc1OCC(=O)N1CCc2nc3n(c2[C@@H]1c1ccc(Cl)cc1F)CCS3` [Example 4.1.15, (S)-N-(5-(2-(5-(4-chloro-2-fluorophenyl)-2,3,7,8-tetrahydrothiazolo[2′,3′:2,3]imidazo[4,5-c]pyridin-6(5H)-yl)-2-oxoethoxy)-6-ethylpyridin-2-yl)methanesulfonamide] came in with an IC50 of 6 nM.
Turning to `O=C(COc1ccc(N2CCCS2(=O)=O)nc1Cl)N1CCc2nc3n(c2[C@@H]1c1ccc(Cl)cc1F)CCS3` [Example 4.1.16, (S)-1-(5-(4-chloro-2-fluorophenyl)-2,3,7,8-tetrahydrothiazolo[2′,3′:2,3]imidazo[4,5-c]pyridin-6(5H)-yl)-2-((2-chloro-6-(1,1-dioxidoisothiazolidin-2-yl)pyridin-3-yl)oxy)ethanone], it took 6 nM to reach half-maximal inhibition (IC50).
The figure for `CCc1nc(C(=O)NC2CC2)ccc1OCC(=O)N1CCc2nc3n(c2C1c1ncc(C2CC2)cc1F)CCS3` (stereo not shown) [Example 4.2.1, N-cyclopropyl-5-(2-(5-(5-cyclopropyl-3-fluoropyridin-2-yl)-2,3,7,8-tetrahydrothiazolo[2′,3′:2,3]imidazo[4,5-c]pyridin-6(5H)-yl)-2-oxoethoxy)-6-ethylpicolinamide] is 8 nM; for `CCc1nc(NS(C)(=O)=O)ccc1OCC(=O)N1CCc2nc3n(c2C1c1ncc(C2CC2)cc1F)CCS3` (stereo not shown) [Example 4.2.2, N-(5-(2-(5-(5-cyclopropyl-3-fluoropyridin-2-yl)-2,3,7,8-tetrahydrothiazolo[2′,3′:2,3]imidazo[4,5-c]pyridin-6(5H)-yl)-2-oxoethoxy)-6-ethylpyridin-2-yl)methanesulfonamide] it is 8 nM; for `CCc1nc(C(=O)NC2CC2)ccc1OCC(=O)N1CCc2nc3n(c2[C@@H]1c1ncc(C2CC2)cc1F)CCS3` [Example 4.2.3, (R)-N-cyclopropyl-5-(2-(5-(5-cyclopropyl-3-fluoropyridin-2-yl)-2,3,7,8-tetrahydrothiazolo[2′,3′:2,3]imidazo[4,5-c]pyridin-6(5H)-yl)-2-oxoethoxy)-6-ethylpicolinamide] it is 16 nM.

The IC50 is the concentration that gives 50% inhibition. Low values mean greater potency in that assay, high ones weaker potency in that assay.
